Source: patent US10168342B2, “Lipid probes and uses thereof” (THE SCRIPPS RESEARCH INSTITUTE, priority 2015, dated 2019)
Like-named read-outs stand apart in the source and are kept apart here.

What was measured:
[1] = molecular target: T1, AEA-DA lipid probe targets in Neuro2a cells (Mus musculus, UniProt O88455)
T1 sequence (O88455 1-471): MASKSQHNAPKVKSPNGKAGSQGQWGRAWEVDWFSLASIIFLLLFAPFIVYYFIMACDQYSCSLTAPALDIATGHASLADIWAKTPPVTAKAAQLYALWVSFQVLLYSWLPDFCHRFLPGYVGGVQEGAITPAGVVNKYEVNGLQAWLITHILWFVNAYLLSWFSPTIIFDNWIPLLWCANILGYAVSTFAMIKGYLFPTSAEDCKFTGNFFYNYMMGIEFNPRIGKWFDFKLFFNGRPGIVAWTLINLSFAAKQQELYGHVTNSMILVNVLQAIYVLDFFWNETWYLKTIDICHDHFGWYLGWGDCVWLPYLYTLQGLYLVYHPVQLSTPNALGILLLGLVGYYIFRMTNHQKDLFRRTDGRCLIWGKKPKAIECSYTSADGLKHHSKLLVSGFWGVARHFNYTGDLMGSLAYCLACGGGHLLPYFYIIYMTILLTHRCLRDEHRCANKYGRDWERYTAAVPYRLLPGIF

[2] = molecular target: T2, AEA-DA lipid probe targets in Neuro2a cells (Mus musculus, UniProt Q9CRD0)
T2 sequence (Q9CRD0 1-247): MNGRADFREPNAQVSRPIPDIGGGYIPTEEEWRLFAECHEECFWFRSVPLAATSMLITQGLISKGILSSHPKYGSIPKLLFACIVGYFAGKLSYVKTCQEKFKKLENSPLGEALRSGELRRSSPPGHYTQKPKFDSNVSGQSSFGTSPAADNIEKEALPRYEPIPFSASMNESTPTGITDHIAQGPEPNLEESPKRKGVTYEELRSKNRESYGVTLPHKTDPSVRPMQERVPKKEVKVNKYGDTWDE

[3] = molecular target: AEA-DA lipid probe targets in Neuro2a cells (Mus musculus, UniProt Q9QUJ7)
Chain of AEA-DA lipid probe targets in Neuro2a cells (Mus musculus, UniProt Q9QUJ7) (Q9QUJ7 whole entry): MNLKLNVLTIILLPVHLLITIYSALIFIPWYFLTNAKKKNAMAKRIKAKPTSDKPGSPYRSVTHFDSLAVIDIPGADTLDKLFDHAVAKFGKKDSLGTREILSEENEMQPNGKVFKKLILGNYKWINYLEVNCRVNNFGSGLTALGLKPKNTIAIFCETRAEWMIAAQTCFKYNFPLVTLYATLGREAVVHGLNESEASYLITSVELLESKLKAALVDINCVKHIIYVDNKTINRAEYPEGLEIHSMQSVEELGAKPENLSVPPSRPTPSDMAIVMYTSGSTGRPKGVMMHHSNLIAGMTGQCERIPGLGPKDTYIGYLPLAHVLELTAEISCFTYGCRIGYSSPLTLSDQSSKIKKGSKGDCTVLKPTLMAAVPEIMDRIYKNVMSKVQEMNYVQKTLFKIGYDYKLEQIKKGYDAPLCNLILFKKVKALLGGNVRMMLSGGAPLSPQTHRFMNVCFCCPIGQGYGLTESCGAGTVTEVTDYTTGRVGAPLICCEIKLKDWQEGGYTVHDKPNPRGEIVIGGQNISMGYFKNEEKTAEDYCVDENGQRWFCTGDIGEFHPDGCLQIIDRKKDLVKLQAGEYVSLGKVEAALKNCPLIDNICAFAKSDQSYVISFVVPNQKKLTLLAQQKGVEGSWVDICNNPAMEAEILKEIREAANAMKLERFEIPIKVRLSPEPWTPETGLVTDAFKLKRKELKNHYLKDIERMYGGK

[4] = molecular target: T3, AEA-DA lipid probe targets in Neuro2a cells (Mus musculus, UniProt Q91X78)
T3 sequence (Q91X78 1-348): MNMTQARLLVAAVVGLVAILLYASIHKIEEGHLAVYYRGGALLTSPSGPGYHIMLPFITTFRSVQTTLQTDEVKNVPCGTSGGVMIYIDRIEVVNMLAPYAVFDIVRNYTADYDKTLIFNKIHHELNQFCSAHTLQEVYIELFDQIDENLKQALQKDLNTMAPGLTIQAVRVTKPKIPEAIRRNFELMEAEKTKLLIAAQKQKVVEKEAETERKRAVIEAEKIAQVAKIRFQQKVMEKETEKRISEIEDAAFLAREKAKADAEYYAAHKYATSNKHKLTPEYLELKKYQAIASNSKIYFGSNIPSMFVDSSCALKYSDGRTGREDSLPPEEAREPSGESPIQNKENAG

[5] = molecular target: T4, AEA-DA lipid probe targets in Neuro2a cells (Mus musculus, UniProt Q03517)
T4 sequence (Q03517 31-617): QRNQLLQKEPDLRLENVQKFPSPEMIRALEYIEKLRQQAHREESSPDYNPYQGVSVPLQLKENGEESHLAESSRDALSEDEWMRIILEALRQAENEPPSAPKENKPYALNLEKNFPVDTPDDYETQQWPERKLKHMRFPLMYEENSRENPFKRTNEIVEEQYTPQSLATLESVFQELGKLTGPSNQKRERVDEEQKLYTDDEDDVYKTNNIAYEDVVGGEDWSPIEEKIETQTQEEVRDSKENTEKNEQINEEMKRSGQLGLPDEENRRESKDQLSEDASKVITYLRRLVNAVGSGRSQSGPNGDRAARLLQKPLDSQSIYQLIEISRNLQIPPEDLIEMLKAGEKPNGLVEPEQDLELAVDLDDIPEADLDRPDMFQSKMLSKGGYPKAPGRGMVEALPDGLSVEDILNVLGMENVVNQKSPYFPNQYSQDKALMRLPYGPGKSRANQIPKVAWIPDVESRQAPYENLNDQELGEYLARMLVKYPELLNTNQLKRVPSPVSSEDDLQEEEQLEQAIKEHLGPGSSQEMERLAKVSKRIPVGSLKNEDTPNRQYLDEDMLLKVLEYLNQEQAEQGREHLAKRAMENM

[6] = molecular target: AEA-DA lipid probe targets in Neuro2a cells (Mus musculus, UniProt P09055)
Chain of AEA-DA lipid probe targets in Neuro2a cells (Mus musculus, UniProt P09055) (P09055 21-798): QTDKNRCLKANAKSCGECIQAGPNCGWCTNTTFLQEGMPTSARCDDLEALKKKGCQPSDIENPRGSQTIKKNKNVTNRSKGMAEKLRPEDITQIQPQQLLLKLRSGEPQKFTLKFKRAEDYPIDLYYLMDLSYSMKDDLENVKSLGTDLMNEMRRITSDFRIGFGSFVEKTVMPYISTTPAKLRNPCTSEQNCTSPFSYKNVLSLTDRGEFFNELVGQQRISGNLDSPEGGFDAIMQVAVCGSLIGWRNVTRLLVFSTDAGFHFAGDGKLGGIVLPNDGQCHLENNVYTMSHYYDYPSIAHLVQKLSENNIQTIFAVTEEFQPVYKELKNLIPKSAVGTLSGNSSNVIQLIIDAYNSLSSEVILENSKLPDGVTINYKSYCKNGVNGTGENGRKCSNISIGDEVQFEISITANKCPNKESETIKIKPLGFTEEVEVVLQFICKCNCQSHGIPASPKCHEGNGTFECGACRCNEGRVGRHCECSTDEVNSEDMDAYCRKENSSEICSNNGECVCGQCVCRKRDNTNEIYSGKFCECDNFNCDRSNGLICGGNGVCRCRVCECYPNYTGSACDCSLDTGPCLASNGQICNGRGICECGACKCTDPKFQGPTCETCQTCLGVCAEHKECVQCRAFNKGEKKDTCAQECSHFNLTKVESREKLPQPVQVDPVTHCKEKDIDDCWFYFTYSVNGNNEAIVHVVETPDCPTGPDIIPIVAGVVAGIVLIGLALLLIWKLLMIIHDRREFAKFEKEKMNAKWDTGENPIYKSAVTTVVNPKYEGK

[7] = molecular target: T5, AEA-DA lipid probe targets in Neuro2a cells (Mus musculus, UniProt P10404)
T5 sequence (P10404 33-641): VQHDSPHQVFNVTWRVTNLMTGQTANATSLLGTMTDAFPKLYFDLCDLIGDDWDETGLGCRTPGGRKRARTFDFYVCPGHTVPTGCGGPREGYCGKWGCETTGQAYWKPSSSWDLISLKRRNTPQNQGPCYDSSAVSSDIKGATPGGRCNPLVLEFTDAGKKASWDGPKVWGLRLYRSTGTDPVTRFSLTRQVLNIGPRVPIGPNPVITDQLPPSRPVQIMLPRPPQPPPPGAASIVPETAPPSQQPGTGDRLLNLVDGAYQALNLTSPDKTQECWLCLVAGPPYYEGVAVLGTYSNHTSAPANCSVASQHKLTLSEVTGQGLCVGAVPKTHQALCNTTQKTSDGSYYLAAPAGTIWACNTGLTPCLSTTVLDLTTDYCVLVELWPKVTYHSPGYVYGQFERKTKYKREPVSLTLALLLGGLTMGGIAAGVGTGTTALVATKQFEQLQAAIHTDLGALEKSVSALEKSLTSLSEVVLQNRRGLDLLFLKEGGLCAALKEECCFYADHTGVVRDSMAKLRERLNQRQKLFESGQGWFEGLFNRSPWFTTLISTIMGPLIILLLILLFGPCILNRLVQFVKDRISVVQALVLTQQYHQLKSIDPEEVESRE

[8] = molecular target: T6, AEA-DA lipid probe targets in Neuro2a cells (Mus musculus, UniProt Q91WS0)
T6 sequence (Q91WS0 1-108): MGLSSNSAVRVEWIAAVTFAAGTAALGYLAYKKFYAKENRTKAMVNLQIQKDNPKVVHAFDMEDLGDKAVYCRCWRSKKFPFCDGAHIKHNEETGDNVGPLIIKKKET

## CCCCC/C=C\C/C=C\C/C=C\C/C=C\CCCC(=O)NCCO [AEA, anandamide, reference compound]
[1]; competitor 200 μM
  SILAC ratio Dhcr7: 1.5
[2]; competitor 200 μM
  SILAC ratio Ociad1: 1.6
[3]; competitor 200 μM
  SILAC ratio Acsl4: 1.6
[4]; competitor 200 μM
  SILAC ratio Erlin1: 1.7
[5]; competitor 200 μM
  SILAC ratio, Scg2: 1.2
[6]; competitor 200 μM
  SILAC ratio Itgb1: 1.5
[7]; competitor 200 μM
  SILAC ratio MLV-related: 1.4
[8]; competitor 200 μM
  SILAC ratio Cisd1: 1.6

## O=C(/C=C/c1cccnc1)NCCCCC1CCN(C(=O)c2ccccc2)CC1 [FK-866, reference compound]
[1]; competitor 25 μM
  SILAC ratio Dhcr7: 0.9
[2]; competitor 25 μM
  SILAC ratio Ociad1: 1.1
[3]; competitor 25 μM
  SILAC ratio Acsl4: 1.3
[4]; competitor 25 μM
  SILAC ratio Erlin1: 1.0
[5]; competitor 25 μM
  SILAC ratio, Scg2: 1.0
[7]; competitor 25 μM
  SILAC ratio MLV-related: 1.1
[8]; competitor 25 μM
  SILAC ratio Cisd1: 1.1

## CN1CCN(C(=O)c2c(-c3ccccc3)c3cc([N+](=O)[O-])ccc3n2C)CC1 [KML110, (1-Methyl-5-nitro-3-phenyl-1H-indol-2-yl)(4-methylpiperazin-1-yl)methanone]
[1]; competitor 25 μM
  SILAC ratio Dhcr7: 1.2
[2]; competitor 25 μM
  SILAC ratio Ociad1: 1.3
[3]; competitor 25 μM
  SILAC ratio Acsl4: 1.3
[5]; competitor 25 μM
  SILAC ratio, Scg2: 1.4
[6]; competitor 25 μM
  SILAC ratio Itgb1: 1.0
[7]; competitor 25 μM
  SILAC ratio MLV-related: 1.2
[8]; competitor 25 μM
  SILAC ratio Cisd1: 1.6

## CN1CCN(C(=O)c2[nH]c3ccc([N+](=O)[O-])cc3c2-c2ccccc2)CC1 [MJN228, (4-Methylpiperazin-1-yl)(5-nitro-3-phenyl-1H-indol-2-yl)methanone]
[1]; competitor 10 μM
  SILAC ratio Dhcr7: 1.1
[1]; competitor 25 μM
  SILAC ratio Dhcr7: 1.2
[1]; competitor 50 μM
  SILAC ratio Dhcr7: 1.5
[1]; competitor 100 μM
  SILAC ratio Dhcr7: 1.7
[2]; competitor 10 μM
  SILAC ratio Ociad1: 1.1
[2]; competitor 25 μM
  SILAC ratio Ociad1: 1.4
[2]; competitor 50 μM
  SILAC ratio Ociad1: 1.1
[2]; competitor 100 μM
  SILAC ratio Ociad1: 1.5
[3]; competitor 10 μM
  SILAC ratio Acsl4: 1.2
[3]; competitor 25 μM
  SILAC ratio Acsl4: 1.4
[3]; competitor 50 μM
  SILAC ratio Acsl4: 1.6
[3]; competitor 100 μM
  SILAC ratio Acsl4: 1.7
[4]; competitor 10 μM
  SILAC ratio Erlin1: 1.4
[4]; competitor 25 μM
  SILAC ratio Erlin1: 1.1
[4]; competitor 100 μM
  SILAC ratio Erlin1: 1.1
[5]; competitor 10 μM
  SILAC ratio, Scg2: 1.3
[5]; competitor 25 μM
  SILAC ratio, Scg2: 1.5
[5]; competitor 50 μM
  SILAC ratio, Scg2: 1.2
[5]; competitor 100 μM
  SILAC ratio, Scg2: 1.1
[6]; competitor 10 μM
  SILAC ratio Itgb1: 1.2
[6]; competitor 25 μM
  SILAC ratio Itgb1: 1.3
[6]; competitor 50 μM
  SILAC ratio Itgb1: 1.1
[6]; competitor 100 μM
  SILAC ratio Itgb1: 1.1
[7]; competitor 10 μM
  SILAC ratio MLV-related: 1.8
[7]; competitor 25 μM
  SILAC ratio MLV-related: 1.8
[7]; competitor 50 μM
  SILAC ratio MLV-related: 1.7
[7]; competitor 100 μM
  SILAC ratio MLV-related: 2.5
[8]; competitor 10 μM
  SILAC ratio Cisd1: 1.3
[8]; competitor 25 μM
  SILAC ratio Cisd1: 1.5
[8]; competitor 50 μM
  SILAC ratio Cisd1: 1.4
[8]; competitor 100 μM
  SILAC ratio Cisd1: 2.4

## C=CCN(C)CCCCCCOc1ccc(C(=O)c2ccc(Br)cc2)c(F)c1 [Ro 48-8071, reference compound]
[1]; competitor 25 μM
  SILAC ratio Dhcr7: 0.8
[2]; competitor 25 μM
  SILAC ratio Ociad1: 1.0
[3]; competitor 25 μM
  SILAC ratio Acsl4: 1.1
[4]; competitor 25 μM
  SILAC ratio Erlin1: 1.2
[5]; competitor 25 μM
  SILAC ratio, Scg2: 1.1
[7]; competitor 25 μM
  SILAC ratio MLV-related: 1.0
[8]; competitor 25 μM
  SILAC ratio Cisd1: 1.1
